Measured values as given in patent EP0738149B1 (priority 1994, dated 1995).
Counter-ions that a name gives are not always drawn. Like-named read-outs stand apart in the source and are kept apart here.

Experiments:
rats [1] = assay: Neurotoxicity in rats (positional sense test and gait stance test), p.o.; details: rats, p.o.; Table 16
Protocol: (§1) Neurotoxicity of the claimed agents was also assessed in mice (i.p. administration) by the rotorod ataxia test and/or in rats (p.o. administration) by positional sense test and gait stance test. […] The term quantitating the neurotoxicity is the medial neurological toxic dose (TD50), was determined in the above tests.

in vivo = details: rat, in vivo, po
Protocol: as §1

[2] = Neurotoxicity in mice (rotorod ataxia test), i.p.; details: mouse, in vivo, ip
Protocol: as §1

rats [3] = details: Rattus norvegicus, po, read-out: RATS scMet ED50
Male mongolian gerbils = assay: Global brain ischemia in gerbils (CA1 pyramidal neurons); assay type: in vivo; details: 3 injections, fraction of hippocampi protected from ischemia, 14 days post-ischemia
Protocol: Each artery was clamped for 5 minutes with aneurysm clips to produce global brain ischemia. The anesthesia was discontinued upon clamping. After 5 minutes the clamps were removed and the wound closed with skin clips.
For treatment, the test compound or vehicle were injected intra-peritoneally (ip) in a volume of 50 microliters of solvent per 10g body weight. The first injection was given two minutes after clamp removal, and thereafter daily for the next 2 post-operative days (total of 3 injections).
Seven groups each of 4-8 animals were compared: • I. Control; (sham- or unoperated and saline treated), • II. Vehicle treated, unoperated (when solvent is other than saline), • III. Ischemia - untreated or saline treated), • IV. Ischemia - vehicle treated (when solvent is other than saline), • V. Ischemia - Test compound treated, one sub-group per concentration tested, • VI. Ischemia and pentobarbital (40 mg/kg) as positive control).
Analysis of neuronal damage was performed 14 days post-ischemia by counting pyramidal neurons throughout the CA1 layer of the anterior hippocampus in […] thick (paraffin) coronal brain sections stained with hematoxylin and erosin.
Percent Protection values represent the fraction of hippocampi protected from ischemia in a group of animals treated with the stated dose of compound.

rats [4] = assay: Maximal electroshock (MES) model in rats, p.o.;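 for all read-outs here: rat MES model gauging antiepileptic efficacy versus generalized and partial seizures after oral dosing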; assay type: in vivo; details: Table 15; for ED50: Rattus norvegicus, po
mice [5] = details: Mus musculus, ip
[6] = tested on: mechanically dissociated neonatal rat cerebellum; assay: Reversal of NMDA induced cell death in cultures of neonatal rat cerebellum; assay type: cell-based; details: for SURVIVING CELL IN CULTURE: relative to control (100%); for PERCENT PROTECTION: Cell Survival minus the NMDA effect; for EFFECTIVE PROTECTION: X x 100/70
Protocol: (§2) The cerebellum was aseptically dissociated from 6 or 7-day old rat pups and placed in a 15ml sterile plastic conical tube containing 3ml of Dulbecco's modified Eagle's medium (DMEM) with a high glucose concentration ([…]) and 2mM (v/v) L-glutamine and an antibiotic antimitotic mixture. The cerebella were then dissociated after 20-25 passages through a sterile 13 gauge, 10cm long stainless steel needle attached to a 5ml syringe with an inserted 45 micrometer pore nylon sieve. The dissociated cells were centrifuged at 200g for 5 minutes. The supernatant was discarded and the cells resuspended in medium enriched with 15% (v/v) heat inactivated fetal calf serum. Cell viability was determined by the tryptan blue exclusion test.
(§3) Cells were plated at a density of 200/mm^2 on poly-L-lysine coated surfaces. Poly-L-lysine coated glass coverslips were prepared at least one hour in advance of plating by immersing sterile coverslips in sterile distilled water solution containing 15 microgram/ml poly-L-lysine, and washing in sterile water just prior to use. The plated cells were covered with enriched medium and incubated at 37°C in an atmosphere of 5% CO2 in air and 97% humidity. After three days in culture, the media was replaced with media containing the desired test compound. Each test compound was tested in duplicate. Toxic-dose response was determined for each compound.
Four groups were run in each set of experiments; • I. Control, consisting of enriched media alone, • II. N-methyl-D-aspartate (NMDA, 1mM for 3 hours) as the cytotoxic challenge, • III. Test compound plus NMDA, and • IV. Positive control, spermine(0.01 micromoles) plus NMDA.
Nerve cell survival was evaluated by phase contrast microscopy and tryptan blue staining after 24 hours.
Surviving cells in culture are measured relative to control (100%), as described above. Percent protection is the Cell Survival for the test compound minus the NMDA effect. Thus, maximal protection is 100% minus 30% NMDA effect i.e. […]. The Effective Protection was calculated as the percent of the Percent Protection (X) divided by the maximal protection value (e.g. X x 100/70).

[7] = tested on: mechanically dissociated neonatal rat cerebellum; assay: Enhancement of cell survival in cultures of neonatal rat cerebellum (no NMDA); assay type: cell-based; details: 24 hours after addition, percentage of the number of control cells on the fourth day
Protocol: as §2, with “The supernatant was discarded and the cells resuspended in medium enriched with 15% (v/v) heat inactivated fetal calf serum.” left out
as §3, with “The plated cells were covered with enriched medium and incubated at 37°C in an atmosphere of 5% CO2 in air and 97% humidity.” left out
Cell cultures were grown as described above but in the absence of NMDA and after 3 days a dose of test compound was added. Cell survival was monitored as described above.

mice [8] = assay: Maximal electroshock (MES) model in mice, i.p.;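 for all read-outs here: Electroshock-induced convulsion model serving to demonstrate antiepileptic efficacy against generalized and partial seizures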; assay type: in vivo; details: for ED50: Mus musculus, ip, Table 15
mice [9] = assay: in vivo; details: mouse, in vivo, ip
Protocol: as §1

male ICR albino mice = assay: Hypobaric hypoxia survival time in mice; assay type: in vivo
Protocol: Dessicator B was disconnected and allowed to equilibrate with room air whilst dessicator A was evacuated to a pressure of 100mmHg. […] The survival time from the moment of induction of hypoxia to the time of cessation of respiration was recorded for each mouse for a maximum of 15 minutes after which time room air was reintroduced to dessicator B. Survivors were monitored for signs of lethargy or vitality.
Effect of drug treatment was assessed as the percent of the survival time of the drug treated group with respect to the saline injected or vehicle injected control group. Control groups were run twice, before and after each experimental group and consisted of 12-16 mice in groups of 4 mice. Each experimental group always consisted of 4 mice to ensure a constant residual volume of oxygen in all tests. The effect of each dose of test drug was determined in duplicate i.e. two groups of 4 mice.
All drugs were administered intra-peritoneally at the dose indicated one hour prior to exposure to hypoxia.

rats [10] = assay: Electrically kindled rat model of epilepsy, p.o.; assay type: in vivo; details: po, read-out: ED50 (prevented seizures)
Excerpt: The rat electrical kindling model of epilepsy has been known to show efficacy of antiepileptic agents against complex partial seizures that evolve into generalized motor seizures. In these tests, rats were electrically stimulated via corneal electrodes twice daily for approximately 5 days and then once daily for an additional 10 days. Once the seizure criteria, as described by R.J. Racine, et al., Electroenceph. Clin. Neurophysiol. 32: 281-294 (1972), were met, the test substance was administered p.o. to rats, and the rat electrically stimulated, and observed for the presence or absence of a seizure.

[11] = read-out: MICE scMet ED50, mice, i.p., Table 16
[12] = 0.005 µM + NMDA 1mM for 3 hours
[13] = 0.010 µM + NMDA 1mM for 3 hours
[14] = 0.100 µM + NMDA 1mM for 3 hours
[15] = rats, p.o., read-out: RATS MES 50

Compound	RATS TD50 (rats [1]) [mg/kg]	TD50 (in vivo) [mg/kg]	ED50 (rats [3]) [mg/kg]	ED50 (mice [5]; [11]) [mg/kg]	ED50 (mice [8]) [mg/kg]	ED50 (rats [4]; [15]) [mg/kg]	MICE TD50 (mice [9]) [mg/kg]	TD50 ([2]; MICE TD50) [mg/kg]	also measured
NC(=O)CN[C@H]1CCc2ccccc21 [Example 2, (S)-N-(2-Acetamido)-1-aminoindan.HCl]	>500	> 500	> 250	> 150	39				TD50 ([2]; MICE TD50, mice, Table 15): 137 mg/kg; TD50 ([2]; MICE TD50, mice, Table 16): 137 mg/kg; PERCENT PROTECTION (Male mongolian gerbils; 0.1 mg/kg ip): 0%; PERCENT PROTECTION (Male mongolian gerbils; 1.0 mg/kg ip): 50.0%; PERCENT PROTECTION (Male mongolian gerbils; 10.0 mg/kg ip): 37.5%; RATS MES 50 (rats [4]; rats, p.o.): 21 mg/kg; SURVIVING CELL IN CULTURE [6, 12]: 56%; PERCENT PROTECTION ([6]; 0.005 µM + NMDA): 26%; EFFECTIVE PROTECTION ([6]; 0.005 µM + NMDA): 37%; SURVIVING CELL IN CULTURE [6, 13]: 51%; PERCENT PROTECTION ([6]; 0.010 µM + NMDA): 21%; EFFECTIVE PROTECTION ([6]; 0.010 µM + NMDA): 30%; SURVIVING CELL IN CULTURE [6, 14]: 33%; PERCENT PROTECTION ([6]; 0.100 µM + NMDA): 3%; EFFECTIVE PROTECTION ([6]; 0.100 µM + NMDA): 4%; % ENHANCED SURVIVAL ([7]; 0.005 µM): 140%; % ENHANCED SURVIVAL ([7]; 0.01 µM): 125%
COc1ccc2c(c1)C(NC(C)=O)CC2 (racemic) [Example 26, (rac) 6-methoxy-N-acetyl-1-aminoindan]	>500	> 500	> 250			40			
CC(=O)N[C@@H]1CCc2ccc(F)cc21 [Example 23, (R)-6-Fluoro-N-acetyl-1-aminoindan]	>500	> 500	> 250	155	65	25	155	155	
COc1ccc2c(c1OC)CC[C@H]2NC(C)=O [Example 21, (R)-4,5-Dimethoxy-N-acetyl-1-aminoindan]	>500	> 500	> 250	150	40	21	137	137	
C#CCN[C@H]1CCc2ccccc21.Cl [G, (S)-N-propargyl-1-aminoindan HCl salt]			> 250		57				ED50 (rats [4]; read-out: RATS MES 50, rats, p.o.): 57 mg/kg; ED50 (mice [5]; read-out: MICE scMet ED50): > 250 mg/kg
NC1CCc2ccc(F)cc21 (stereo not shown) [I, 6-fluoro-1-aminoindan]	>50	> 50	> 100		66	< 50	58	58	
C#CCNC1CCc2ccc(F)cc21 (stereo not shown) [L, 6-fluoro-N-propargyl-1-aminoindan]	>50	> 50	> 300		74	50	188	188	activity in the MES model in mice (mice [8]; statement in words): showed activity
N[C@@H]1CCc2ccc(F)cc21 [J, (R)-6-fluoro-1-aminoindan]	>50	> 50	> 100		65	< 50	78	78	PERCENT PROTECTION (Male mongolian gerbils; 0.1 mg/kg ip): 27.5%; PERCENT PROTECTION (Male mongolian gerbils; 1.0 mg/kg ip): 25.0%; PERCENT PROTECTION (Male mongolian gerbils; 10.0 mg/kg ip): 25.0%; PROTECTION % OF RESPECTIVE CONTROL (male ICR albino mice; 50 mg/kg ip one hour prior to hypoxia): 305±185 % OF RESPECTIVE CONTROL; PROTECTION % OF RESPECTIVE CONTROL (male ICR albino mice; 100 mg/kg ip one hour prior to hypoxia): 241±56 % OF RESPECTIVE CONTROL; SURVIVING CELL IN CULTURE [6, 12]: 108%; PERCENT PROTECTION ([6]; 0.005 µM + NMDA): 78%; EFFECTIVE PROTECTION ([6]; 0.005 µM + NMDA): 111%; SURVIVING CELL IN CULTURE [6, 13]: 79%; PERCENT PROTECTION ([6]; 0.010 µM + NMDA): 49%; EFFECTIVE PROTECTION ([6]; 0.010 µM + NMDA): 70%; SURVIVING CELL IN CULTURE [6, 14]: 62%; PERCENT PROTECTION ([6]; 0.100 µM + NMDA): 32%; EFFECTIVE PROTECTION ([6]; 0.100 µM + NMDA): 46%; SURVIVING CELL IN CULTURE ([6]; 1.000 µM + NMDA 1mM for 3 hours): 53%; PERCENT PROTECTION ([6]; 1.000 µM + NMDA): 23%; EFFECTIVE PROTECTION ([6]; 1.000 µM + NMDA): 33%; SURVIVING CELL IN CULTURE ([6]; 5.000 µM + NMDA 1mM for 3 hours): 60%; PERCENT PROTECTION ([6]; 5.000 µM + NMDA): 30%; EFFECTIVE PROTECTION ([6]; 5.000 µM + NMDA): 43%
CC(=O)NC1CCc2ccccc21 (racemic) [Example 17, (rac)-N-Acetyl-1-aminoindan]				71.5	33		90	90	ED50 (rats [10]): < 75 mg/kg
O=CNC1CCc2ccccc21 (racemic) [Example 8, (rac)-N-Formyl-1-aminoindan]	>500	> 500	> 250			24			
